What all share (format): in vivo
The subject of assay [1] is Stellaria media. Kind of assay: Pre-emergence herbicidal activity against STEME. The settings on record: Stellaria media, 504 h, dosage 80 g/ha. An excerpt:
(§1) 1. Pre-Emergence Herbicidal Action and Crop Plant Compatibility Seeds of monocotyledonous and dicotyledonous weed plants and crop plants are placed in plastic or wood fiber pots and covered with soil. The compounds of the invention, formulated in the form of wettable powders (WP) or as emulsion concentrates (EC), are then applied onto the surface of the covering soil as aqueous suspension or emulsion with addition of 0.5% additive at a water application rate of 600 l/ha (converted). After the treatment, the pots are placed in a greenhouse and kept under good growth conditions for the trial plants. After about 3 weeks, the effect of the preparations is scored visually in comparison with untreated controls as percentages. For example, 100% activity=the plants have died, 0% activity=like control plants. STEME: Stellaria media VERPE: Veronica persica

Assay [2] relates to Veronica persica. Kind of assay: Pre-emergence herbicidal activity against VERPE. The settings on record: Veronica persica, 504 h, dosage 80 g/ha.
From the text: as §1

A further assay relates to Alopecurus myosuroides. As to the kind of experiment: Post-emergence herbicidal activity against ALOMY. The settings on record: Alopecurus myosuroides, 504 h, dosage 320 g/ha, rated about 3 weeks after treatment. On the procedure:
(§2) ABUTH: Abutilon theophrasti ALOMY: Alopecurus myosuroides 2. Post-Emergence Herbicidal Action and Crop Plant Compatibility Seeds of monocotyledonous and dicotyledonous weeds and crop plants are placed in sandy loam in plastic or wood-fiber pots, covered with soil and cultivated in a greenhouse under controlled growth conditions. 2 to 3 weeks after sowing, the test plants are treated at the one-leaf stage. The compounds of the invention, formulated in the form of wettable powders (WP) or as emulsion concentrates (EC), are then sprayed onto the green parts of the plants as aqueous suspension or emulsion with addition of 0.5% additive at a water application rate of 600 l/ha (converted). After the test plants had been kept in the greenhouse under optimum growth conditions for about 3 weeks, the activity of the preparations is rated visually in comparison to untreated controls. For example, 100% activity=the plants have died, 0% activity=like control plants.

The next assay has as its system Avena fatua. As to the kind of experiment: Post-emergence herbicidal activity against AVEFA. Conditions: Avena fatua, 504 h, dosage 320 g/ha, rated about 3 weeks after treatment. On the procedure:
as §2, with “AMARE: Amaranthus retroflexus AVEFA: Avena fatua” for “ABUTH: Abutilon theophrasti ALOMY: Alopecurus myosuroides”

The test system of another assay is Abutilon theophrasti. As to the kind of experiment: Post-emergence herbicidal activity against ABUTH. The settings on record: Abutilon theophrasti, 504 h, dosage 320 g/ha, rated about 3 weeks after treatment. On the procedure: as §2
For the next assay, the system named is Pharbitis purpurea. As to the kind of experiment: Post-emergence herbicidal activity against PHBPU. Conditions: Ipomoea purpurea, 504 h, dosage 320 g/ha, rated about 3 weeks after treatment. On the procedure:
as §2, with “LOLRI: Lolium rigidum PHBPU: Pharbitis purpurea” for “ABUTH: Abutilon theophrasti ALOMY: Alopecurus myosuroides”

Another assay relates to Polygonum convolvulus. Kind of assay: Post-emergence herbicidal activity against POLCO. Conditions: Fallopia convolvulus, 504 h, dosage 320 g/ha, rated about 3 weeks after treatment. On the procedure:
as §2, with “POLCO: Polygonum convolvulus SETVI: Setaria viridis” for “ABUTH: Abutilon theophrasti ALOMY: Alopecurus myosuroides”

In assay [3] the test system is Stellaria media. Kind of assay: Post-emergence herbicidal activity against STEME. The settings on record: Stellaria media, 504 h, dosage 320 g/ha, rated about 3 weeks after treatment. How it is done: as §2, with “STEME: Stellaria media VERPE: Veronica persica” for “ABUTH: Abutilon theophrasti ALOMY: Alopecurus myosuroides”
For assay [4], the system named is Veronica persica. As to the kind of experiment: Post-emergence herbicidal activity against VERPE. The settings on record: Veronica persica, 504 h, dosage 320 g/ha. How it is done: as §2, with “STEME: Stellaria media VERPE: Veronica persica” for “ABUTH: Abutilon theophrasti ALOMY: Alopecurus myosuroides”
A short description of assay [5]: Post-emergence treatment, summary over harmful plants. Conditions: 504 h, application rate of 0.32 kg of active substance or less per hectare, read-out: herbicidal action, post-emergence treatment (very good herbicidal activity). On the procedure:
2. Post-Emergence Herbicidal Action and Crop Plant Compatibility
as §2, with “Seeds” for “ABUTH: Abutilon theophrasti ALOMY: Alopecurus myosuroides 2. Post-Emergence Herbicidal Action and Crop Plant Compatibility Seeds”
As shown by the results, compounds according to the invention such as, for example, the compounds No. I-35 and other compounds from the tables (for example I-28, I-38, I-01, I-19, I-36, I-29, I-32, I-11, I-12, I-37, I-06, I-09, I-33, I-34, I-13, I-04, I-26, I-21, I-30, I-05, I-03, I-20, I-27, I-14, I-10, I-23, I-07, I-25, I-02, I-08, I-24, I-41, I-42, I-43, I-44, I-46, I-49, I-54, I-55, I-56) have, when used for post-emergence treatment, very good herbicidal activity (80% to 100% herbicidal action) against harmful plants such as Abutilon theophrasti, Alopecurus myosuroides, Amaranthus retroflexus, Avena fatua, Echinochloa crus-galli, Hordeum murinum, Lolium rigidum, Pharbitis purpurea, Polygonum convolvulus, Setaria viridis, Stellaria media, Veronica persica and Viola tricolor at an application rate of 0.32 kg of active substance or less per hectare.

In the next assay the test system is Amaranthus retroflexus. Kind of assay: Pre-emergence herbicidal activity against AMARE. Conditions: Amaranthus retroflexus, 504 h, dosage 80 g/ha.
From the text: as §1, with “AMARE: Amaranthus retroflexus AVEFA: Avena fatua” for “STEME: Stellaria media VERPE: Veronica persica”

In a further assay the test system is Lolium rigidum. As to the kind of experiment: Post-emergence herbicidal activity against LOLRI. The settings on record: Lolium rigidum, 504 h, dosage 320 g/ha, rated about 3 weeks after treatment. How it is done:
as §2, with “LOLRI: Lolium rigidum PHBPU: Pharbitis purpurea” for “ABUTH: Abutilon theophrasti ALOMY: Alopecurus myosuroides”

The next assay has as its system Hordeum murinum. Kind of assay: Post-emergence herbicidal activity against HORMU. Conditions: Hordeum murinum, 504 h, dosage 320 g/ha. On the procedure: as §2, with “ECHCG: Echinochloa crus-galli HORMU: Hordeum murinum” for “ABUTH: Abutilon theophrasti ALOMY: Alopecurus myosuroides”

For the molecule `COC(=O)C1=C(NC(=O)C2(C)CC(c3cc(F)cc(F)c3)=NO2)COC1` (stereo not shown) [I-25, methyl 4-[[3-(3,5-difluorophenyl)-5-methyl-4H-isoxazole-5-carbonyl]amino]-2,5-dihydrofuran-3-carboxylate], the pest or weed control at 80 g/ha in the assay with Stellaria media [1] and in the assay on Veronica persica [2] was 100% each time. Moreover, the pest or weed control at 320 g/ha with Alopecurus myosuroides amounted to 100%; with Avena fatua it was 100%; with Abutilon theophrasti, 80%; in the assay with Pharbitis purpurea, 80%; in the assay with Polygonum convolvulus, 90%; in the assay on Stellaria media [3], 90%. Further, the pest or weed control at 320 g/ha in the assay with Veronica persica [4] is 80%; in assay [5], 80 to 100%.
As for `CCOC(=O)C1=C(NC(=O)C2(C)CC(c3cc(F)cc(F)c3)=NO2)COC1` (stereo not shown) [I-24, ethyl 4-[[3-(3,5-difluorophenyl)-5-methyl-4H-isoxazole-5-carbonyl]amino]-2,5-dihydrofuran-3-carboxylate], the values for the pest or weed control at 80 g/ha with Amaranthus retroflexus and with Veronica persica [2] were 80% and 100%, respectively. Moreover, the pest or weed control at 320 g/ha was 90% with Alopecurus myosuroides; 90% with Avena fatua; 90% in the assay on Lolium rigidum; 80% with Pharbitis purpurea; 90% in the assay on Polygonum convolvulus; 90% in the assay on Hordeum murinum. In assay [5], the pest or weed control at 320 g/ha was 80 to 100%.

(Values after US11597724B2, “Herbicidally active 3-phenylisoxazoline-5-carboxamides of tetrahydro and dihydrofuran carboxylic acids and esters” (Bayer Aktiengesellschaft, priority 2017, dated 2023).)
